The source of these data is patent US6352985B1, “Benzimidazole compounds” (Fujisawa Pharmaceutical Co., Ltd., priority 1995, dated 2002).

System in the first series: not given
Assay: not given
Details: not given
The compound `Cc1nc2ccc(C(=O)NS(=O)(=O)c3ccc4ccccc4c3)cc2n1Cc1ccccc1Cl.[Na]` gave a melting point of 352 to 354.5 °C.

Regarding `Cc1nc2ccc(C(=O)NS(=O)(=O)c3ccc(Cl)cc3)cc2n1Cc1ccccc1Cl.[Na]`, the melting point was 360 to 362 °C (dec.).

Take `Cc1nc2ccc(C(=O)NS(=O)(=O)C(F)(F)F)cc2n1Cc1ccccc1Cl.Cl`: the melting point was 332 to 335 °C (dec.).

`CCCc1nc2ccc(C(=O)NS(=O)(=O)c3ccccc3)cc2n1Cc1ccc(-c2ccccc2)cc1.[K]` gave a melting point of 279 to 282 °C.

`CC(C)c1nc2ccc(C(=O)NS(=O)(=O)c3ccccc3)cc2n1Cc1ccc(-c2ccccc2)cc1.[K]`: the melting point was in the range of 310.1 to 312.7 °C.

For the compound `Cc1nc2ccc(C(=O)NS(=O)(=O)c3cccc4cccnc34)cc2n1Cc1ccccc1Cl.[Na]`, the melting point is 348 to 352 °C (dec.).

The compound `Cc1nc2ccc(C(=O)NS(=O)(=O)c3ccc(C(C)(C)C)cc3)cc2n1Cc1ccccc1Cl.[Na]` showed a melting point of 359.5 to 362 °C.

Consider `O=C(NS(=O)(=O)c1ccccc1)c1ccc2nc(C3CC3)n(Cc3ccc(-c4ccccc4)cc3)c2c1.[K]`, for which the melting point lay in the range of 220.8 to 224.8 °C.

`Cc1nc2ccc(C(=O)NS(=O)(=O)c3ccccc3)cc2n1Cc1ccccc1Cl` [Compound (163), 6-benzenesulfonylcarbamoyl-1-(2-chlorobenzyl)-2-methylbenzimidazole] returned a melting point of 273.5 to 274.3 °C.

For the compound `Cc1nc2ccc(C=CC(=O)NS(=O)(=O)c3ccccc3)cc2n1Cc1ccccc1Cl` [Compound (178), N-benzenesulfonyl-3-[1-(2-chlorobenzyl)-2-methylbenzimidazol-6-yl]acrylamide], the melting point lay in the range of 243.1 to 244.3 °C.

For `Cc1nc2ccc(C(=O)NS(=O)(=O)c3cccc(Cl)c3)cc2n1Cc1ccccc1Cl` [Compound (209), 6-(3-chlorobenzenesulfonylcarbamoyl)-1-(2-chlorobenzyl)-2-methylbenzimidazole], the melting point is 254.5 to 257.5 °C (dec.).

Take `COc1ccc(S(=O)(=O)NC(=O)c2ccc3nc(C)n(Cc4ccccc4Cl)c3c2)cc1` [Compound (217), 1-(2-chlorobenzyl)-6-(4-methoxybenzenesulfonylcarbamoyl)-2-methylbenzimidazole]: the melting point is 271 to 274 °C.

Turning to `Cc1nc2ccc(C(=O)NS(=O)(=O)Cc3ccccc3)cc2n1Cc1ccccc1Cl` [Compound (218), 1-(2-chlorobenzyl)-2-methyl-6-(α-toluenesulfonylcarbamoyl)benzimidazole], the melting point lay within 193 to 196 °C.

For `Cc1ccc(C)c(S(=O)(=O)NC(=O)c2ccc3nc(C)n(Cc4ccccc4Cl)c3c2)c1` [Compound (219), 1-(2-chlorobenzyl)-6-(2,5-dimethylbenzenesulfonylcarbamoyl)-2-methylbenzimidazole], the melting point fell in the range of 266.5 to 267.5 °C.

As for `Cc1nc2ccc(C(=O)NS(=O)(=O)c3ccc([N+](=O)[O-])cc3)cc2n1Cc1ccccc1Cl` [Compound (220), 1-(2-chlorobenzyl)-2-methyl-6-(4-nitrobenzenesulfonylcarbamoyl)benzimidazole], the melting point lay within 330 to 332 °C.

As for `Cc1nc2ccc(C(=O)NS(=O)(=O)c3ccc(C(F)(F)F)cc3)cc2n1Cc1ccccc1Cl` [Compound (221), 1-(2-chlorobenzyl)-2-methyl-6-[4-(trifluoromethyl)benzenesulfonylcarbamoyl]benzimidazole], the melting point was in the range of 288 to 292 °C.

For the compound `Cc1nc2ccc(C(=O)NS(=O)(=O)c3ccccc3Cl)cc2n1Cc1ccccc1Cl.N` [Compound (222), 6-(2-chlorobenzenesulfonylcarbamoyl)-1-(2-chlorobenzyl)-2-methylbenzimidazole ammonium salt], the melting point was 264 to 267 °C.

Compound `CNc1nc2ccc(C(=O)NS(=O)(=O)c3ccccc3)cc2n1Cc1ccc(-c2ccccc2)cc1` [Compound (230), 6-benzenesulfonylcarbamoyl-1-(biphenyl-4-ylmethyl)-2-methylaminobenzimidazole] had a melting point of 225 to 228 °C.

Regarding `Nc1nc2ccc(C(=O)NS(=O)(=O)c3ccccc3)cc2n1Cc1ccc(-c2ccccc2)cc1` [Compound (231), 2-amino-6-benzenesulfonylcarbamoyl-1-(biphenyl-4-ylmethyl)benzimidazole], the melting point lay within 352.5 to 355 °C.

`Cc1nc2ccc(CCC(=O)NS(=O)(=O)c3ccccc3)cc2n1Cc1ccccc1Cl` [Compound (266), N-benzenesulfonyl-3-[1-(2-chlorobenzyl)-2-methylbenzimidazole-6-yl]propionamide] showed a melting point of 229.8 to 233 °C.

The compound `CCCCS(=O)(=O)NC(=O)c1ccc2nc(C)n(Cc3ccc(C(=O)c4ccccc4)cc3)c2c1` [Compound (373), 1-[(4-benzoyl)benzyl]-6-(1-butanesulfonylcarbamoyl)-2-methylbenzimidazole] came in with a melting point of 111 to 112.4 °C.

`CCCCS(=O)(=O)NC(=O)c1ccc2nc(O)n(Cc3ccc(Cl)cc3Cl)c2c1` [Compound (379), 6-(1-butanesulfonylcarbamoyl)-1-(2,4-dichlorobenzyl)-2-hydroxybenzimidazole] returned a melting point of 254 to 256 °C.

In another series the test system is db/db mice. Kind of series: Test for activity of decreasing plasma glucose using db/db mice. Type of series: in vivo. The settings on record: female db/db mice, dose 10 mg/kg mixed with powdered chow for 14 days; difference between db/db and +/+ mouse defined as 100%. How it is done: Test for activity of decreasing plasma glucose using db/db mice
Five-week-old female mice [C57BL/KsJ-dbm db+/db+, C57BL/KsJ-dbm +m/+m (Jackson Laboratory) were purchased, and were kept for 2 to 3 weeks. Then, these mice were used in the test.
A test compound was mixed with a powdered chow (CE-2, made by Nippon Clea) using a mortar. According to the amount of food intake of the mouse, the mixing ratios, 0.1%, 0.03%, and 0.01% corresponded to 100, 30, and 10 mg/kg body weight, respectively. The mixed chow was changed twice a week. The feed amount and the remaining amount were recorded, and the intake was calculated from the difference therebetween.
The female db/db mice were grouped according to the body weight, the plasma glucose and the plasma triglyceride concentrations. Then, the mixture containing the test compound was administered to the mice for 14 days (from 8 to 10 weeks old). […] Plasma glucose, triglyceride, and insulin concentrations were measured on day 0 and day 14 as well as plasma glucose and triglyceride concentrations on day 7. The body weight was measured on day 0, day 7, and day 14. […]
The plasma glucose was measured by a glucose oxidase method (Glucose CII-Test Wako made by Wako Pure Chemical Industries, Ltd.) using from 10 to 15 μl of plasma. The plasma triglyceride concentration was measured by a GPO-p-chlorophenol method (Triglyceride G-Test Wako made by Wako Pure Chemical Industries, Ltd.) or a GPO-DAOS method (Triglyceride E-Test Wako) using from 10 to 15 μl of plasma. […] The plasma insulin concentration was measured by radio immuno assay method (Phadesef Insulin RIA Kit made by Cabi Pharmacia) using 20 μl of plasma (which can be stored at −20° C.).
The difference in the plasma glucose and the plasma triglyceride concentrations betweeen the db/db mouse and the +/+ mouse was defined as 100%, and the rate (%) of decrease in the plasma glucose and the plasma triglyceride concentrations of the group to which the test compound was administered was calculated.
For `CCCCS(=O)(=O)NC(=O)c1ccc2nc(C)n(Cc3ccc(-c4ccccc4)cc3)c2c1` [Compound (172), 1-(biphenyl-4-ylmethyl)-6-(1-butanesulfonylcarbamoyl)-2-methylbenzimidazole], the “Activity of decreasing plasma glucose (%)” value is reported as 70-80%.

The series is the same for the next values; noted with them: female db/db mice, dose 30 mg/kg mixed with powdered chow for 14 days; difference between db/db and +/+ mouse defined as 100%.
Turning to `Cc1nc2ccc(C(=O)NS(=O)(=O)c3ccccc3)cc2n1Cc1ccccc1Cl` [Compound (163), 6-benzenesulfonylcarbamoyl-1-(2-chlorobenzyl)-2-methylbenzimidazole], the “Activity of decreasing plasma glucose (%)” value is 72%.

Take `O=C(NS(=O)(=O)c1ccccc1)c1ccc2nc(C3CC3)n(Cc3ccccc3F)c2c1` [Compound (177), 6-benzenesulfonylcarbamoyl-2-cyclopropyl-1-(2-fluorobenzyl)benzimidazole]: the “Activity of decreasing plasma glucose (%)” value is reported as 34.5%.

One may read the melting point as the temperature of the solid-liquid transition.
